pIC50 data for 45 molecules are collected here from ChEMBL document CHEMBL2346646, “Improving the inhibitory activity of arylidenaminoguanidine compounds at the N-methyl-D-aspartate receptor complex from a recursive computational-experimental structure-activity relationship study” (Bioorg Med Chem, 2013).

The target of this experiment is Glutamate [NMDA] receptor. The arrangement: species or system Homo sapiens.
For `Cc1ccc(/C=N/NC(=N)N)c2ccccc12.Cl`, the pIC50 amounted to 4.94.
The molecule `CN(C)c1ccc(/C=N/NC(=N)N)cc1.Cl` returned a pIC50 of 5.1.
The same measure for `Cl.N=C(N)N/N=C/c1ccccc1Cl`: 5.15.
Regarding `Cl.N=C(N)N/N=C/c1ccc[nH]1`, the pIC50 was determined as 4.02.
The same measure for `Cl.N=C(N)N/N=C/c1ccc([N+](=O)[O-])cc1`: 4.11; for `Cl.N=C(N)N/N=C/c1ccccc1F`: 4.13; for `COc1ccc(/C=N/NC(=N)N)cc1O.Cl`: 4.2.
`Cl.Cn1c(/C=N/NC(=N)N)cc2ccccc21` displayed a pIC50 of 4.31.
`Cc1ccc2ccccc2c1/C=N/NC(=N)N.Cl`: the pIC50 amounted to 4.58.
Molecule `Cl.N=C(N)N/N=C/c1ccc(O)cc1O` showed a pIC50 of 3.67.
To `Cl.N=C(N)N/N=C/c1cccc(Cl)c1` belongs 4.74.
To `Cc1ccc2cc(/C=N/NC(=N)N)[nH]c2c1.Cl` belongs 4.48; to `Cl.N#Cc1cccc(/C=N/NC(=N)N)c1`, 4.36.
The same measure for `Cl.N=C(N)N/N=C/c1ccc(-c2ccc([N+](=O)[O-])cc2)o1`: 3.96.
With `Cl.N=C(N)N/N=C/c1ccc(Cl)cc1Cl`, the negative logarithm of the IC50 (pIC50) was 4.99.
As for `Cl.N=C(N)N/N=C/c1ccc(F)cc1`, the pIC50 came to 4.04.
`Cl.N=C(N)N/N=C/c1ccc(N)cc1`: the pIC50 is 3.96.
To `Cl.N=C(N)N/N=C/c1ccccc1C(F)(F)F` belongs 4.6.
`COC(=O)c1ccc(/C=N/NC(=N)N)cc1.Cl` displayed a pIC50 of 4.15.
As to `Cl.N=C(N)N/N=C/c1ccsc1`, the pIC50 was determined as 3.74.
The molecule `COc1ccc(/C=N/NC(=N)N)c(OC)c1.Cl` gave a pIC50 of 4.54.
`Cl.N=C(N)N/N=C/c1ccc2ccccc2c1` gave a pIC50 of 5.06.
`Cl.N=C(N)N/N=C/c1cccnc1` showed a pIC50 of 3.17.
Regarding `COC(=O)c1cccc(/C=N/NC(=N)N)c1.Cl`, the pIC50 was 4.14.
`COc1ccc(/C=N/NC(=N)N)cc1[N+](=O)[O-].Cl`: the pIC50 is 5.11.
`Cl.N#Cc1ccc(/C=N/NC(=N)N)cc1` registered a pIC50 of 3.64.
The same measure for `Cl.N=C(N)N/N=C/c1cccc([N+](=O)[O-])c1`: 3.81.
With `Cl.Cl.N=C(N)N/N=C/c1ccc(/C=N/NC(=N)N)cc1`, the negative logarithm of the IC50 (pIC50) turned out to be 4.49.
In turn, `Cc1ccc(/C=N/NC(=N)N)cc1.Cl` came in with a pIC50 of 4.09.
For the molecule `Cl.N=C(N)N/N=C/c1ccccc1-c1ccccc1`, the pIC50 is recorded as 5.07.
For the molecule `CC(C)c1ccc(/C=N/NC(=N)N)cc1.Cl`, the pIC50 stood at 5.22.
`Cl.N=C(N)N/N=C/c1ccc(F)cc1F` gave a pIC50 of 4.26.
The molecule `Cl.N=C(N)N/N=C/c1ccc(Cl)cc1` displayed a pIC50 of 5.44.
With `Cl.N=C(N)N/N=C/C=C/c1ccccc1`, the pIC50 came out at 4.23.
With `Cl.N=C(N)N/N=C/c1ccc2[nH]ccc2c1`, the pIC50 came out at 4.3.
Take `COc1ccccc1/C=N/NC(=N)N.Cl`: the negative-log IC50 (pIC50) turned out to be 4.77.
As for `Cl.N=C(N)N/N=C/c1cccc2ccccc12`, the pIC50 came out at 4.57.
Molecule `Cl.N=C(N)N/N=C/c1cc2ccccc2[nH]1` came in with a negative logarithm of the IC50 (pIC50) of 4.24.
To `COc1ccc(/C=N/NC(=N)N)cc1.Cl` belongs 4.42; to `Cl.N=C(N)N/N=C/c1ccc2c(c1)OCO2`, 4.41; to `Cl.N=C(N)N/N=C/c1ccncc1`, 3.27.
On to `CC(C)(C)c1ccc(/C=N/NC(=N)N)cc1.Cl`, for which the pIC50 is recorded as 4.64.
To `CCCCc1ccc(/C=N/NC(=N)N)cc1.Cl` belongs 4.37; to `Cl.N=C(N)N/N=C/c1ccccc1`, 4.14.
Molecule `Cl.N=C(N)N/N=C/c1cccc(N)c1` came in with a pIC50 of 3.65.
